Consider one substance from article PMC12199414, “A Self‐Assembling LYTAC Mediates CTGF Degradation and Remodels Inflammatory Tumor Microenvironment for Triple‐Negative Breast Cancer Therapy” (Advanced Science, 2025).

For series [1], the system named is red blood cells. The experiment in a line: Hemolysis assay. It is filed as cell-based, mice. To be noted: mouse erythrocytes, 0-30 × 10^−6 M, 1 h, 37 °C, absorbance 570 nm. On the procedure:
The hemolytic activities of CL8, CL8‐M6P3, and NanoCLY were determined by monitoring hemoglobin release from red blood cells. Fresh erythrocytes were obtained from the whole blood of mice by centrifugation (1000 × g for 30 min at 4 °C), and washed three times with cold 0.9% NaCl. The erythrocytes were dispensed into 96‐well plates, incubated with CL8, CL8‐M6P3 and NanoCLY at specified concentrations (0, 0.3, 1, 3, 10, and 30 × 10^−6 M) for 1 h at 37 °C, centrifuged at 1000 × g for 10 min, the supernatant samples were collected, and the absorbance at 570 nm was measured by microplate reader Cytation 5 (Biotek, USA). The negative control group was defined as the absorbance obtained in 1× PBS (A PBS), and 100% hemolysis in 0.1%Triton X‐100 (v/v) (A Triton). The hemolysis percentage was calculated as: (A peptide − A PBS)/(ATriton − A PBS) × 100%.

Series [2] relates to MDA‐MB‐231 tumor. The experiment in a line: Orthotopic xenograft MDA‐MB‐231 tumor model. It is filed as in vivo, BALB/c nude mice. As to the method: For the orthotopic xenograft MDA‐MB‐231 tumor model, 3 × 10^6 cells were injected into the fourth pair of breast pads on the left side of the female nude mice (4–6 weeks old). To evaluate the antitumor effect of NanoCLY in vivo, the mice were treated with 10 mg kg^−1 NanoCLY daily once the tumor volume reached ≈50 mm^3, with CL8 peptide (10 mg kg^−1, daily) and FG‐3019 (30 mg kg^−1, every 3 days) as the positive control group and PBS as negative control group. The dose selection and administration frequency of NanoCLY were based on both references to previously reported protein degrader studies with similar mechanisms and effective concentrations,^[ [28], [54], [58] ^] and our preliminary in vivo dose‐escalation experiments. […] Based on this, 10 mg kg^−1 was selected for subsequent experiments. As for FG‐3019, the 30 mg kg^−1 dose was chosen based on previous studies.^[ [43], [59] ^] To evaluate the advantages of degradation strategies in vivo, the mice were treated with 10 mg kg^−1 NanoCLY daily with Nano@CL8 (10 mg kg^−1, daily) and PBS as control group. To evaluate the antitumor effect of combination therapy in vivo, the mice were treated with NanoCLY (10 mg kg^−1, daily), PTX (5 mg kg^−1, every two days), and PTX plus NanoCLY. […]

For the substance “C12-CPSAAHYL-PEG3-[Pra(M6P)βAla]3-NH2 [NanoCLY, CL8-M6P3 joined to a lauryl chain via disulfide; self-assembling GSH-responsive LYTAC nanoparticle]”, the hemolysis safety entry in series [1] is recorded as “good hemolysis safety”. Moreover, the “tumor growth inhibition (TGI)” value in series [2] (10 mg kg^−1 daily i.v., n = 6) is 59.62% and ≈ 60%. Also, the tumor inhibition rate result in series [2] (preliminary in vivo dose-escalation experiments, 10 mg kg^−1) is reported as “over 50%”.
